Series [1] in a line: Heat storage / variable temperature XRD form conversion. The series is classed as physicochemical. The following applies: for form conversion by XRD: 40° C. oven over weekend. The method, then: Recrystallization Using Heat: Amorphous/glass samples from Panel 1 were placed in a vacuum oven at 60° C. for 6 days. […] A sample of Form I was placed in a 40° C. in oven over a weekend.

A short description of series [2]: Competitive Slurry Experiments. The series is classed as physicochemical. The settings on record: ambient temperature and pressure. The method, then:
These experiments rely on the solubility differences of different polymorphic forms.
The slurry experiments were performed by exposing excess material of Forms I and II to a small volume of solvent/water and agitating the resulting suspensions for several days at ambient temperature. The solids were filtered and analyzed by XRD and DSC to determine the resulting form. To avoid possible desolvation or physical change after isolation, the sample was not dried before x-ray analysis.

A short description of series [3]: Static Vapor Sorption Study. The following applies: 75% RH static humidity chamber, ambient temperature, after 5 and 12 days. The series is classed as physicochemical. The source says:
Static Vapor Sorption Study: A […] vapor sorption study was done in a sealed humidity chamber with an automatic moisture sorption balance. Data collected during dynamic vapor sorption studies often are not at thermodynamic equilibrium. To determine if the Form I and Form II material form a hydrate over time, samples were monitored in a 75% static humidity chamber.
In these studies, samples were stored in open Petri dishes in a chamber containing a saturated salt solution to maintain the relative vapor pressure. A solution of saturated sodium chloride (75% RH) salt at ambient temperature was used.
The samples were examined gravimetrically after 5 and 12 days.

Series [4] in a line: Polymorph screen summary of solid state forms. The series is classed as physicochemical. The settings on record: room temperature and pressure. The source says: The raw diffraction data generated from the polymorph screening experiments were categorized into two polymorphic forms. Samples of these different forms were used to perform additional experiments (DSC, TGA, HSM, etc.) to refine the forms.
The main result is the discovery of two anhydrous polymorphic forms of J147. The polymorphic forms isolated in this Example were designated I and II. At room temperature and pressure Form II is the thermodynamically form of J147. Form I is the metastable form at room temperature and pressure.

Series [5] in a line: Hygroscopicity-Dynamic Vapor Sorption (DVS). Format: physicochemical. The settings on record: 25° C.; for tendency to hydrate formation (DVS): 0 to 95% RH; for total weight loss (DVS): at 95% RH. The method, then: Hygroscopicity-Dynamic Vapor Sorption (DVS): DVS is a gravimetric screening technique that measures how quickly and how much of a solvent (water) is adsorbed by a sample. The relative humidity or vapor concentration surrounding the sample is varied while the change in mass of the sample is measured. […] The mass values at each relative humidity step are used to generate the isotherm. Isotherms are divided in two components: sorption for increasing humidity steps and desorption for decreasing humidity steps.
The samples were analyzed using a TA Q2000 automated dynamic vapor sorption analyzer. The samples were dried at 40° C. for 5 hours and then cooled to 25° C. with a dry nitrogen purge over them until they no longer lost mass at 0% RH. The samples were then subjected to 0 to 95% RH, back to 0% RH at 25° C. in 5% RH steps.

In series [6] the test system is normal rodents. The following applies: cited from earlier work.
The subject of series [7] is transgenic AD mouse model. The settings on record: cited from earlier work.
A short description of series [8]: Visual Solubility Measurement. The series is classed as physicochemical. The following applies: thermodynamic from solid, ambient temperature, read-out: Approximate Solubility. The method, then:
Visual Solubility Measurement: Approximately 80 mg of J147 was placed into each of 25 vials. Solvent was added and vials were stirred for several minutes at ambient temperature, followed by visual observation for remaining solids. The solvent was incrementally added until the solids were dissolved, or until a maximum volume of solvent was added and the experiment was terminated. These stock solutions were used to set up further panels of experiments.

Series [9] concerns neurotoxicity pathways related to aging and neurodegenerative diseases. The settings on record: assays indicating distinct neurotoxicity pathways; cited from earlier work.
The nature of series [10]: Grinding. Format: physicochemical. The following applies: ball mill 1 minute at 4800 oscillations per minute. The method, then:
Grinding: Form I was ground using a Crescent Wig-L-Bug ball mill for 1 minute at 4800 oscillations per minute (3.2 m/s).

SMILES strings stand for the structures. Values after ≈ are worked out from the molar mass of the structure shown. “Also recorded” adds a separate entry of the source. Like-named read-outs stand apart in the source and are kept apart here.

With `COc1cccc(C=NN(C(=O)C(F)(F)F)c2ccc(C)cc2C)c1` [Form II, 2,2,2-trifluoroacetic acid 1-(2,4-Dimethylphenyl)-2-[(3-methoxyphenyl)methylene]hydrazide], the “form conversion by XRD” value in series [1] is “no form conversion”. Also, the “solubility and thermodynamic stability relative to Form I” value in series [2] is reported as “less soluble, more thermodynamically stable”. Moreover, the “hydrate formation (gravimetric weight change)” value in [3] was “no hydrate formation”. Further, in series [4], the “Description (thermodynamic stability of form)” value is listed as “Thermodynamically”. Besides, in series [5], the “tendency to hydrate formation (DVS)” value is recorded as “does not appear to be prone to hydrate formation” and the “total weight loss (DVS)” value is on record as “approximately 0.5%”.
As to `COc1cccc(/C=N/N(C(=O)C(F)(F)F)c2ccc(C)cc2C)c1` [Form J147, 2,2,2-trifluoroacetic acid 1-(2,4-Dimethylphenyl)-2-[(3-methoxyphenyl)methylene] hydrazide], the effect on memory entry in series [6] is “improve memory”. For the same compound, in series [7], the “effect on synaptic proteins and cognitive decline” value is “prevent the loss of synaptic proteins and cognitive decline”. Moreover, the solubility in series [8] (organic solvent or mixture, 1-butanol) was 40 mg/mL (≈ 114 mM); in [8] (organic solvent or mixture, 1-propanol), greater than 80 mg/mL; in series [8] (organic solvent or mixture, 2-butanol) it was 40 mg/mL (≈ 114 mM); in series [8] (organic solvent or mixture, 2-propanol), 40 mg/mL (≈ 114 mM); in series [8] (organic solvent or mixture, acetone) it was greater than 80 mg/mL; in series [8] (organic solvent or mixture, acetonitrile (ACN)), greater than 80 mg/mL. The solubility is greater than 80 mg/mL in [8] (organic solvent or mixture, butyl amine); greater than 80 mg/mL in [8] (organic solvent or mixture, chloroform); greater than 80 mg/mL in [8] (organic solvent or mixture, dichloromethane (DCM)); greater than 80 mg/mL in series [8] (organic solvent or mixture, dimethyl formamide (DMF)); greater than 80 mg/mL in series [8] (organic solvent or mixture, dimethylacetamide (DMA)); greater than 80 mg/mL in series [8] (organic solvent or mixture, ethanol). Further, the solubility was greater than 80 mg/mL in series [8] (organic solvent or mixture, ethyl acetate); 8 mg/mL (≈ 22.8 mM) in series [8] (organic solvent or mixture, heptane); greater than 80 mg/mL in series [8] (organic solvent or mixture, isopropyl acetate); greater than 80 mg/mL in [8] (organic solvent or mixture, isopropyl ether); greater than 80 mg/mL in series [8] (organic solvent or mixture, methanol); greater than 80 mg/mL in series [8] (organic solvent or mixture, methyl ethyl ketone (MEK)). Further, the solubility was greater than 80 mg/mL in [8] (organic solvent or mixture, methyl tert butyl ether (MTBE)); greater than 80 mg/mL in series [8] (organic solvent or mixture, nitromethane); greater than 80 mg/mL in series [8] (organic solvent or mixture, pyridine); greater than 80 mg/mL in [8] (organic solvent or mixture, tetrahydrofuran (THF)); greater than 80 mg/mL in [8] (organic solvent or mixture, toluene); greater than 80 mg/mL in series [8] (organic solvent or mixture, trifluoroethanol). The solubility in series [8] (water) is less than 1.6 mg/mL. In addition, in series [9], the EC50 is 10 to 200 nM.
`COc1cccc(C=NN(C(=O)C(F)(F)F)c2ccc(C)cc2C)c1` [Form I, 2,2,2-trifluoroacetic acid 1-(2,4-Dimethylphenyl)-2-[(3-methoxyphenyl)methylene]hydrazide]: in series [10], the “form transformation by XRD after grinding” value is listed as “no transformation”. In addition, the “form conversion by XRD” value in [1] was “conversion to Form II”. For the same compound, the “form conversion by variable temperature XRD” value in series [1] (held at 35° C. over a weekend) was “no form conversion”. Also, the “hydrate formation (gravimetric weight change)” value in series [3] is on record as “no hydrate formation”. Also, in series [4], the “Description (thermodynamic stability of form)” value is “Metastable”. In series [5], the “tendency to hydrate formation (DVS)” value was “does not appear to be prone to hydrate formation; also recorded: did not appear to be prone to hydrate formation” and the “total weight loss (DVS)” value is given as “approximately 0.5%”.
For the compound `COc1cccc(/C=N/N(C(=O)C(F)(F)F)c2ccc(C)cc2C)c1` [Amorphous/glass samples from Panel 1], the “form by XRD after heating” value in series [1] (vacuum oven at 60° C. for 6 days) was “XRD pattern of Form II”.
